Tests used:
[1] = target: T1, AKT3 (Homo sapiens, UniProt Q9Y243); assay: Cellular inhibition of AKT3 using an ELISA (AKT cel, Ex. C6); format: cell-based; set-up: endogenous in cells; host or cells: MDA-MB 231; details: MDA-MB 231 cells, phosphorylated MAPK ELISA, 30 minutes with compound; read-out: AKT cel (Ex. C6): pIC50 values (converted)
Description: Cellular Inhibition of AKT3 using an ELISA
The human breast adenocarcinoma cell line (MDA-MB 231) was used in an phosphospecific antibody cell ELISA (PACE) to assess the inhibitory effect of the compounds on AKT3 mediated phosphorylation of mitogen-activated protein kinase (MAPK). In the experiments the MDA-MB 231 cells were serum starved for 24 hours (5% CO2; 37° C.). Subsequently, the cells are incubated at room temperature for 2 hours with 20 μM (in serum free medium) of the phosphatidylinositol 3-kinase inhibitor Ly294002 (Alexis, San Diego, Calif.) prior to the incubation for 30 minutes with the compounds at a final concentration ranging from 1 nM to 3 μM. After fixation (with 4.5% formaldehyde) for 20 minutes and washing with PBS (0.1M) the cells were successively incubated with for 5 minutes with 0.1% Triton X-100 in PBS, for 20 minutes with 0.6% H2O2 and 1 hour with a 2% BSA solution as blocking buffer. […] The OD (490–655 nm) reflected the amount of phosphorylated MAPK and the pIC50 of the compounds was based on their effect with respect to blanco (0.1% DMSO) or an internal reference compound treatment.

[2] = target: cdk4 (Homo sapiens, UniProt P11802); assay: In vitro inhibition of cdk4 using a scintillant proximity assay (CDK4 SPA, Ex. C1); format: biochemical; details: GST-pRb substrate, 33P-ATP, room temperature 30 minutes; read-out: CDK4 SPA (Ex. C1): pIC50 values (converted)
Sequence of cdk4 (P11802 whole entry): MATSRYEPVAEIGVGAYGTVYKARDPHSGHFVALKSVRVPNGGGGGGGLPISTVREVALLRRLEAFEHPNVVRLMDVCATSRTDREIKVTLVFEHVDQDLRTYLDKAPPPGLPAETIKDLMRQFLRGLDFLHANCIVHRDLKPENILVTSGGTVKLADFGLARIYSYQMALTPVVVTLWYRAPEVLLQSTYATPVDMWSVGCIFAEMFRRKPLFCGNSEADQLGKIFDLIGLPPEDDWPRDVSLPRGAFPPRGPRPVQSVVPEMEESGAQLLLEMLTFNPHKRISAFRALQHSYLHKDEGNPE
Sequence of cdk4 (P24385 whole entry partner): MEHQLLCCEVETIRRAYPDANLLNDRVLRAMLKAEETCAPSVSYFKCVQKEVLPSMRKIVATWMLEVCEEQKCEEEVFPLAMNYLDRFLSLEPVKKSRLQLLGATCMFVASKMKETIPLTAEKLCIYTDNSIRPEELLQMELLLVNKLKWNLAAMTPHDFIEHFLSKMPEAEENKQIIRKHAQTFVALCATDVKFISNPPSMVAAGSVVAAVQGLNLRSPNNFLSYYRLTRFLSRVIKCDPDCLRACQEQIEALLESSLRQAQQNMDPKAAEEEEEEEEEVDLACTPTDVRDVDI
Description: In Vitro Inhibition of cdk4 using a Scintillant Proximity Assay
The scintillant proximity assay (SPA) is in general described in U.S. Pat. No. 4,568,649 (Amersham Pharmacia Biotech). In the present cdk4 SPA kinase reaction assay, a kinase substrate consisting of a fragment of the restinoblastoma protein (pRb) tagged with […] (GST), is incubated with the aforementioned protein in the presence of (^33P) radiolabeled ATP. (^33P) phosporylation of the substrate is subsequently measured as light energy emitted using glutathione-coated SPA beads (Amersham Pharmacia Biotech) by trapping and quantifying the binding of the GST tagged and radiolabeled restinoblastoma protein.
The CDK4 SPA kinase reaction is performed at room temperature for 30 minutes in a 96-well microtiter plate. For each of the tested compounds a full dose response —10^−5M to 3.10^−9M—has been performed. Flavopiridol was used as reference compound. The 100 μl reaction volume contains 50 mM Hepes, 10 mM NaF, 10 mM MgCl2, 1 mM Na3VO4 pH 7.5, 1.5 μg CDK4-cell lysate/well, 0.2 μM unlabeled ATP, 1.7 μg/well GST-pRb, 1.7 nM AT^33P and 1 μl of a DMSO solution. The reaction is stopped by diluting the reaction mixture ½ with 0.1 mM Na2EDTA, 0.1 mM non-labeled ATP, 0.05% Triton-X-100 and 10 mg/ml glutathion coated beads in PBS. The microtiterplates are centrifuges at 900 rpm for 10 minutes and the amount of phosphorylated (^33P) pRb is determined by counting (1 min/well) in a microtiterplate scintillation counter.

[3] = target: T1, AKT3; assay: In vitro inhibition of AKT3 using a filter assay (AKT3 pep., Ex. C3); format: biochemical; details: histone H2B substrate, filter assay, 25° C. 3 hrs; read-out: AKT3 pep. (Ex. C3): pIC50 values (converted)
Description: In Vitro Inhibition of AKT3 using a Filter Assay
In the present AKT3 filter assay, a kinase substrate consisting of a fragment of histone H2B, is incubated with the aforementioned protein in the presence of (^33P) radiolabeled ATP. The (^33P)phosporylated substrate binds to a phosphocellulose cation exchange filter, that can easily be removed from the incubation mixture and counted using a microplate scintillation counter.
AKT3 filter assays were performed at 25° C. for 3 hrs in the presence of 25 mM Hepes, pH 7.0, containing 15 mM MgCl2, 1 mM DTT Each assay was performed in a 100 μl reaction volume containing 111 nM AKT3 (diluted in 25 mM Hepes, pH 7.0, containing 15 mM MgCl2, 1 mM DTT) and the 2.5 μM Histone H2B and 2 nM ATP-P^32. The reaction was terminated by addition of 100 μl 75 mM H3PO4, 90 μl of the assay mixture was filtered through Phosphocellulose cation exchange paper. After five times washing with […] H3PO4, the filterpaper was counting in a microtiterplate scintillation counter.

[4] = target: T2, CDC25B (Homo sapiens, UniProt P30305); assay: In vitro inhibition of CDC25B using the fluorogenic substrate 3-OMFP (CDC25B WT, Ex. C5); format: biochemical; details: 3-OMFP substrate, 1 hour room temperature; read-out: CDC25B WT (Ex. C5): pIC50 values (converted)
T2 sequence (P30305 1-580): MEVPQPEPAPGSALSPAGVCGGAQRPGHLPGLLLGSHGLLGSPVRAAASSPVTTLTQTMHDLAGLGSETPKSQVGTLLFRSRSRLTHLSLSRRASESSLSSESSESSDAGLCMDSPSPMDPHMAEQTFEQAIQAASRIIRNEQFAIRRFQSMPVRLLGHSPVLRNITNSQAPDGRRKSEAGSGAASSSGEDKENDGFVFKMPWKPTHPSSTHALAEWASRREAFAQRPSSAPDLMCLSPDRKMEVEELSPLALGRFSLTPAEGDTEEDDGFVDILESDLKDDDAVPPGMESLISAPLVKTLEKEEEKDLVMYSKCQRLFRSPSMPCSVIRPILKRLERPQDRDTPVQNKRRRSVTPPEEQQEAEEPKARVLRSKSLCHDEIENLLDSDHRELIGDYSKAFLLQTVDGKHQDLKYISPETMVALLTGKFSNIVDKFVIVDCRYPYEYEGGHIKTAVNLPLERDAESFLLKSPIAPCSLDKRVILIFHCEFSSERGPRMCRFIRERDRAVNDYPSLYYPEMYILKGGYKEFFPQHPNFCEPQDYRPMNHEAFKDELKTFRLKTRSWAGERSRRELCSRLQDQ
Description: In Vitro Inhibition of CDC25B using the Fluorogenic Substrate 3-OMFP
CDC25B phosphatase activity is assessed using the fluorogenic substrate 3-O-methyl-flurorescein-phosphate (3-OMFP). The phosphatase-reaction is performed for 1 hour at room temperature in a black microtiter plate in a volume of 50 μl. The reaction mixture contains 4 μg/mlCDC25B, 15 μM (3-OMFP), 15 mM Tris, 50 mM NaCl, 1 mM DTT, 1 mM Na2EDTA at pH 8.0 and 0.1% DMSO solution at 10^−5 M and the hits are tested in the same conditions in a full dose/response from 10^−5, 3.10^−6, 10^−6 and 3.10^−7 M. The enzymatic activity is determined by measuring the fluorescent signal at 485 nm (ex.) and 538 (em.).

[5] = system: A2780 cell; assay: Cytotox/survival of A2780 cell after 3 days; format: cell-based; details: Homo sapiens, 72 h; A2780 ovarian carcinoma cell line, 3 days; read-out: Cytotox/survival of A2780 cell after 3 days - pIC50 values (converted)
Description: In an alternative assay, the growth inhibitory effect of the compounds was tested on the ovarian carcinoma cell line A2780 using art known cytotoxicity assays such as LIVE/DEAD (Molecular Probes) or MTT.

T1 sequence (Q9Y243 whole entry): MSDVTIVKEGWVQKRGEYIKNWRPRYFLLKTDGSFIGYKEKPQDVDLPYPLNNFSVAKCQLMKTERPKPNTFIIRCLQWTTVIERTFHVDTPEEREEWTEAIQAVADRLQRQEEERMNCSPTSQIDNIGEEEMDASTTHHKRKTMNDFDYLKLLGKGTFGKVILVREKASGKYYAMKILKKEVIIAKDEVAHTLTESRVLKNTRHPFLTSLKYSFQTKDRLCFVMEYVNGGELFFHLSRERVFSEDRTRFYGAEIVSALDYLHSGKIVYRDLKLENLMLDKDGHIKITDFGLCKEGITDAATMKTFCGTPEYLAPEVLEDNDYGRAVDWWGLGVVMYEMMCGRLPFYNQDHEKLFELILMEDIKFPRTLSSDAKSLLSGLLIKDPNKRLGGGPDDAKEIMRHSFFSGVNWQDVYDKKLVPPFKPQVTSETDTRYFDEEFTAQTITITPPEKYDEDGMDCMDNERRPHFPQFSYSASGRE

| Structure (SMILES) | IC50 [1] [nM] | IC50 [2] [nM] | IC50 [3] [nM] | melting point [°C] | IC50 [4] [nM] | IC50 [5] [nM] |
| --- | --- | --- | --- | --- | --- | --- |
| COCCN1CCN(Cc2ccc(-c3ccc(-c4nc5c(=O)n(C)c(=O)nc-5n(C5CCCC5)n4)o3)cc2)CC1 [Compound 133] | 67.8 | 112 | 61 | 186 | 11.6 | 119 |
| Cn1c(=O)nc2n(C3CCCC3)nc(-c3ccc(-c4ccc(CNCc5cccnc5)cc4)o3)nc-2c1=O [Compound 122] | 123 | 91 | 30.9 | 205 | 14 | 70.5 |
| Cn1c(=O)nc2n(C3CCCC3)nc(-c3ccc(-c4ccc(CN5CCNCC5)cc4)o3)nc-2c1=O [Compound 105] | 98.2 |  | 115 | > 276.5 | 16.6 | 54.5 |
| Cn1c(=O)nc2n(C3CCNCC3)nc(-c3ccc(-c4cccc(Cl)c4)o3)nc-2c1=O [Compound 96] | 3.41 |  | 62.1 | > 250 | 9.18 | 10 |
| Cn1c(=O)nc2n(C3CCCC3)nc(-c3ccc(-c4ccc(S(=O)(=O)N5CCOCC5)cc4)o3)nc-2c1=O [Compound 93] | 471 |  | 53.6 | > 250 | 11 | 52.8 |
| Cn1c(=O)nc2n(C3CCCC3)nc(-c3ccc(-c4ccc(CN5CCN(CCO)CC5)cc4)o3)nc-2c1=O [Compound 106] | 102 |  | 84.3 | 175 | 15.6 | 70.3 |
| Cn1c(=O)nc2n(C3CCCC3)nc(-c3ccc(-c4ccc(CN5CCC(N)CC5)cc4)o3)nc-2c1=O [Compound 37] | 34.4 |  | 51.8 |  |  | 67.5 |
| CN1CCN(C(=O)COc2ccc(-c3ccc(-c4nc5c(=O)n(C)c(=O)nc-5n(C5CCCC5)n4)o3)cc2)CC1 [Compound 119] | 470 | 129 | 54 | 252 | 17.6 | 48.1 |
| Cn1c(=O)nc2n(C3CCCC3)nc(-c3ccc(-c4ccc(CN5CCOCC5)cc4)o3)nc-2c1=O [Compound 94] | 63.8 |  | 57.3 | 255 | 11.2 | 53 |
| Cn1nc(-c2ccc(-c3cccc(CN4CCOCC4)c3)o2)nc2c(=O)n(C)c(=O)nc1-2 [Compound 1] | 62.1 |  | 32.1 | 209.3 to 219.8 | < 1 | 61.9 |
| Cn1c(=O)nc2n(C3CCN(S(N)(=O)=O)CC3)nc(-c3ccc(-c4cccc(Cl)c4)o3)nc-2c1=O [Compound 114] | 187 |  | 45.2 | > 250 | 15.2 | 110 |
| Cn1nc(-c2ccc(-c3ccc(S(=O)(=O)N4CCOCC4)cc3)o2)nc2c(=O)n(C)c(=O)nc1-2 |  |  |  | 264.3 to 273.4 |  |  |
| Cn1c(=O)nc2n(C3CCCC3)nc(-c3ccc(-c4ccc(CNCCO)cc4)o3)nc-2c1=O [Compound 113] | 34.8 |  | 32.5 | 240 | 14.2 | 45.1 |
| Cn1nc(-c2ccc(-c3cccc(CNS(C)(=O)=O)c3)o2)nc2c(=O)n(C)c(=O)nc1-2 [Compound 2] | 209 |  | 72.6 | 215.1 to 236.6 | 20.8 | 490 |
| Cn1nc(-c2ccc(-c3cccc(Cl)c3)o2)nc2c(=O)n(C3CCN(Cc4ccccc4)CC3)c(=O)nc1-2 |  |  |  | 210.4 to 241 |  |  |
| Cn1c(=O)nc2n(C3CCCC3)nc(-c3ccc(-c4ccc(CN5CCC(O)CC5)cc4)o3)nc-2c1=O [Compound 103] | 65.5 |  | 85.5 | > 250 | 16 | 60.8 |
| CC(c1ccccc1)n1nc(-c2ccc(-c3cccc(Cl)c3)o2)nc2c(=O)n(C)c(=O)nc1-2 (stereo not drawn) [Compound 67] | 716 |  | 161 |  | 21.3 | 196 |
| Cn1c(=O)nc2n(C3CCCC3)nc(-c3ccc(-c4cccc(CN5CCOCC5)c4)o3)nc-2c1=O [Compound 98] | 111 |  | 107 | 155 | 15.1 | 107 |
| CC(C)n1nc(-c2ccc(-c3ccc(CN4CCOCC4)cc3)o2)nc2c(=O)n(C)c(=O)nc1-2 [Compound 78] | 139 |  | 57.9 |  | 11.3 | 79.8 |
| CONCc1ccc(-c2ccc(-c3nc4c(=O)n(C)c(=O)nc-4n(C4CCCC4)n3)o2)cc1 [Compound 115] | 74.8 |  | 48.1 | 140 | 13.2 | 46.9 |
| CN(CCO)Cc1ccc(-c2ccc(-c3nc4c(=O)n(C)c(=O)nc-4n(C4CCCC4)n3)o2)cc1 [Compound 107] | 95.7 |  | 39.5 | > 250 | 16 | 60.8 |

Reference: patent publication US7241763B2, “3-furanyl analogs of toxoflavine as kinase inhibitors” (priority 2002, dated 2007)
